This test has as its target T1, Ketohexokinase (KHK) (Homo sapiens, UniProt P50053).
T1 construct: His tag; made in house; host or cells: E. coli
T1 sequence (P50053 1-298): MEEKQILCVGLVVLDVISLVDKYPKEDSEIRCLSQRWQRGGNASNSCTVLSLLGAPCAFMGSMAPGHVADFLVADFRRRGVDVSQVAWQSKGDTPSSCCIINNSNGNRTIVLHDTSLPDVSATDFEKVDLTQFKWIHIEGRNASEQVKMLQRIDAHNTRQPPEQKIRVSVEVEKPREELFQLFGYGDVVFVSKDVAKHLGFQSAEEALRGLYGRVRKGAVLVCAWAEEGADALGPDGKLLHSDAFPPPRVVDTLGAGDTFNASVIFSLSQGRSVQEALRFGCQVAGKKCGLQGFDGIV
Kind of test: Activity measurement of ketohexokinase inhibitor in vitro (Transcreener ADP2 TR-FRET Red Assay). The test is classed as biochemical. The conditions noted are these: purified His-tagged KHK expressed in E. coli; 30 min preincubation with inhibitor, 15 min reaction with ATP and fructose; ADP by TR-FRET (665/615 ratio). How it is done: Ketohexokinase (KHK) was expressed in E. coli, and was purified using His tag. In order to measure the activity of the purified KHK, Transcreener ADP2 TR-FRET Red Assay kit of BellBrook Labs was used. A method of measuring the amount of ADP produced using TR-FRET after reacting a solution including appropriate concentrations of a KHK protein, ATP, and fructose for 15 minutes, was used. In order to observe the activity of a ketohexokinase (KHK) inhibitor, ketohexokinase (KHK) and an inhibitor with an appropriate concentration were reacted first for 30 minutes, and then, reacted with a solution include a substrate of ketohexokinase (KHK) for 15 minutes. Then, reaction for TR-FRET was conducted for 1 hour, and fluorescence was measured using Envision apparatus of PerkinElmer Co. The predetermined value of Envision apparatus was determined according to the optimization process of TR-FRET published by BellBrook Lab. The resultant value for each concentration of the ketohexokinase (KHK) inhibitor is determined by a ratio of 665 nm wavelength and 615 nm wavelength. IC50 is analyzed by measuring the 665/615 ratio value with respect to the concentration of each inhibitor and using a statistics software (Prizm). IC50 was represented by the concentration of the inhibitor, showing 50% of the maximum inhibition activity by the inhibitor.
(Time-resolved FRET reads energy transfer from a long-lived donor to a nearby acceptor.)

For five compounds, IC50 results are on record in patent US12122766B2, “3-azabicyclo[3,1,1]heptane derivative and pharmaceutical composition including same” (LG CHEM, LTD., priority 2018, dated 2024).

Each structure is given as a SMILES string. Bounds are passed on as bounds.

Usually IC50 stands for the midpoint of a concentration-inhibition curve.

`N#Cc1c(C(F)(F)F)cc(N2C[C@H]3C[C@@H](C2)[C@@H]3CC(=O)O)nc1N1CCCC1` [Example 5, 2-((1R,5S,6R)-3-(5-cyano-6-(pyrrolidine-1-yl)-4-(trifluoromethyl)pyridine-2-yl)-3-azabicyclo[3,1,1]heptane-6-yl)acetic Acid]: the 50% inhibitory concentration (IC50) is no more than 21.2 µM.
Next, `C[C@H]1CCN1c1nc(N2C[C@H]3C[C@@H](C2)[C@H]3CC(=O)O)cc(C(F)(F)F)c1C#N` [Example 3, 2-((1R,5S,6R)-3-(5-cyano-6-((S)-2-methylazetidine-1-yl)-4-(trifluoromethyl)pyridine-2-yl)-3-azabicyclo[3,1,1]heptane-6-yl)acetic Acid]: no less than 1 µM.
Then `C[C@H]1CCN1c1nc(N2C[C@H]3C[C@@H](C2)[C@H]3CC(=O)O)cc(C(F)(F)F)n1` [Example 1, 2-((1R,5S,6R)-3-(2-((S)-2-methylazetidine-1-yl)-6-(trifluoromethyl)pyrimidine-4-yl)-3-azabicyclo[3,1,1]heptane-6-yl)acetic Acid], with no less than 1 µM; and `C[C@H]1CCN1c1nc(N2C[C@H]3C[C@@H](C2)[C@@H]3CC(=O)O)cc(C(F)(F)F)c1C#N` [Example 4, 2-((1R,5S,6S)-3-(5-cyano-6-((S)-2-methylazetidine-1-yl)-4-(trifluoromethyl)pyridine-2-yl)-3-azabicyclo[3,1,1]heptane-6-yl)acetic Acid], with no more than 21.2 µM.
Consider `C[C@H]1CCN1c1nc(N2C[C@H]3C[C@@H](C2)[C@@H]3CC(=O)O)cc(C(F)(F)F)n1` [Example 2, 2-((1R,5S,6S)-3-(2-((S)-2-methylazetidine-1-yl)-6-(trifluoromethyl)pyrimidine-4-yl)-3-azabicyclo[3,1,1]heptane-6-yl)acetic Acid], for which the IC50 is no more than 21.2 µM.
